Test results as given in EP1306084A1, “Compositions for the control of parasitic infestations in fish” (Alpharma AS, priority 1998, dated 1999).

Assays:
[1] = Specific growth rate after sea transfer (Example 5); format: in vivo, sea trout (Salmo trutta); conditions: treated groups (oral, bath), after about 13 weeks; control group 0.37%
Experimental: About 300 sea trout (Salmo trutta) of an average weight of 160 grams were divided into three groups of 100 fish each. One group was given oral treatment for one week before they were transferred to sea at a daily dosage of 4 mg hexaflumuron per kg fish for 5 days. The second group was treated with a bath treatment using a dosage of 5 ppm hexaflumuron for 30 minutes with a formulation containing 10% hexaflumuron, while the last group remained untreated. The treatments were carried out in fresh water during the last week before the fish were transferred to sea water. In the sea water, the fish were distributed into 3 mini-cages with 100 fish in each. The fish were then exposed to natural sea lice infection. Lice from 6-10 fish from each cage were counted every third week to assess whether there was any difference in the number of lice between the cages. At the end of the trial, i.e. about 13 weeks after the fish had been transferred to sea, the fish in each cage were weighed to check possible differences in SGR. The water temperature varied within the range of 12 - 22°C during the trial.
After 11 weeks there was no difference between the groups, but the number of lice was very low in all groups, which makes it difficult to determine the length of the protection period. […] The SGR was determined after about 13 weeks. […]

sea lice [2] = experiment: Injection of hexaflumuron in furunculosis vaccine formulations, sea lice counts after sea water transfer (Example 7); format: in vivo, salmon (Salmo salar); conditions: for average number of lice: control group 19.2
Experimental: The treatment dosage was 9 mg hexaflumuron per kg fish per day for 10 days. This is indicated by "Groups/Timepoints" in the figure; • Figure 2 relates to the trial in Example 2 that was carried out on Atlantic salmon (Salmo salar). […] The treatment dosage varied between 3 - 9 mg hexaflumuron and 9- 12 mg fluazuron per kg fish per day for 7 days. This is indicated by "Groups/Timepoints" in the diagram. […] The treated groups are compared to an untreated control group. The treatment dosage was 4 mg hexaflumuron per kg fish per day for 5 days. This is indicated by "Groups/Timepoints" in the figure. Cage 2 = controls, Cage 4-6 = treated groups, 16.6.97 = time point for sea transfer and 5.8.97= controls treated by bathing with deltamethrin; • Figure 4 relates to the trial described in Example 5, which was carried out on sea trout (Salmo trutta). […] The treated groups are compared with an untreated control group. The dosage for oral treatment was 4 mg hexaflumuron per kilo fish per day for 5 days, and 5 ppm hexaflumuron as a 30 minute bath treatment. This is indicated by "Groups/Timepoints" in the figure. Cage 1.4 = Controls, cage 1.3 = Oral treatment, cage 1.2 = Bath treatment. […] The treated groups are compared with an untreated control group, and one group that has been treated orally with teflubenzuron (10 mg/kg of teflubenzuron per kg fish per day for 7 days). The dosage for oral treatment was 5.6 mg hexaflumuron per kg fish per day for 7 days, and 5 ppm hexaflumuron as a 30 minute bath treatment. […] End of treatment: 22.10.97, Sea transfer: 23.10.97. T1 = 3 weeks post end of treatment, T2 = 5 weeks post end of treatment, T3 = 9 weeks post end of treatment, T4 = 12 weeks post end of treatment; • Figure 6 relates to the trial in Example 6 at time points 4-6, with the same trial parameters as for Figure 5. T5 = 15 weeks post end of treatment, T6 = 17 weeks post end of treatment. Cage 3 and 4 were treated by bath with deltamethrin after sea lice counting at T4 (12.01.98); • Figure 7 relates to the trial described in Example 7 where salmon were injected on 17.12.97 with two formulations (groups L and R, respectively) of hexaflumuron and a vaccine formulation without hexaflumuron (control). […] The vaccinated fish was transferred to sea water on 09.01.98; • Figure 8 summarises the trial of Example 8 where salmon smolts were injected with 9 different active substances on 08.07.98. Only results for Moxidectin (Mox.), Lufenuron (Luf.) and hexaflumuron in Apoject 1-Fural (Hex.Apo) and in animal oil (Hex.oil) are shown, and • Figure 9 summarises the trial described in Example 10 where salmon were injected on 03.12.97 with 3 different formulations of hexaflumuron (Hexa 1, Hexa 2 and Hexa 3). The fish were transferred to sea water at T0.
About 80 salmon (Salmo salar) at an average weight of about 80 grams were divided into two groups and injected with two different formulations of hexaflumuron at a dosage of about 50 mg/kg. Both formulations were prepared based upon a vaccine against furunculosis containing inactivated cells of Aeromonas salmonicida subsp. salmonicida. Hexaflumuron was mixed/formulated into the vaccine in two different manners to study the effect of the formulation on the depot effect in the fish and on the stability characteristics of the vaccine emulsions.
The fish were dosed (injected) while they were in freshwater and 23 days after the administration they were transferred to sea water (mini-cages). In parallel with the two groups, a third group comprising 40 fish of the same origin and size was vaccinated with a conventional vaccine without hexaflumuron. This group was kept in the same tank (freshwater) and cage (sea water) as the "hexaflumuron injected" groups and served as negative control/reference group in respect of sea lice infestations. Prior to the start of the trial, the groups were marked by fin cutting. The water temperature varied between 3.8 and 16.0°C throughout the trial. […]

sea lice [3] = experiment: Injection of hexaflumuron in multivalent vaccine formulations, sea lice counts after sea water transfer (Example 10); format: in vivo, salmon (Salmo salar)
Experimental: The treatment dosage was 9 mg hexaflumuron per kg fish per day for 10 days. This is indicated by "Groups/Timepoints" in the figure; • Figure 2 relates to the trial in Example 2 that was carried out on Atlantic salmon (Salmo salar). […] The treatment dosage varied between 3 - 9 mg hexaflumuron and 9- 12 mg fluazuron per kg fish per day for 7 days. This is indicated by "Groups/Timepoints" in the diagram. […] The treated groups are compared to an untreated control group. The treatment dosage was 4 mg hexaflumuron per kg fish per day for 5 days. This is indicated by "Groups/Timepoints" in the figure. Cage 2 = controls, Cage 4-6 = treated groups, 16.6.97 = time point for sea transfer and 5.8.97= controls treated by bathing with deltamethrin; • Figure 4 relates to the trial described in Example 5, which was carried out on sea trout (Salmo trutta). […] The treated groups are compared with an untreated control group. The dosage for oral treatment was 4 mg hexaflumuron per kilo fish per day for 5 days, and 5 ppm hexaflumuron as a 30 minute bath treatment. This is indicated by "Groups/Timepoints" in the figure. Cage 1.4 = Controls, cage 1.3 = Oral treatment, cage 1.2 = Bath treatment. […] The treated groups are compared with an untreated control group, and one group that has been treated orally with teflubenzuron (10 mg/kg of teflubenzuron per kg fish per day for 7 days). The dosage for oral treatment was 5.6 mg hexaflumuron per kg fish per day for 7 days, and 5 ppm hexaflumuron as a 30 minute bath treatment. […] End of treatment: 22.10.97, Sea transfer: 23.10.97. T1 = 3 weeks post end of treatment, T2 = 5 weeks post end of treatment, T3 = 9 weeks post end of treatment, T4 = 12 weeks post end of treatment; • Figure 6 relates to the trial in Example 6 at time points 4-6, with the same trial parameters as for Figure 5. […]
Following transfer to sea water, the fish were exposed to natural sea lice infestation. Every three weeks lice were counted on 10 fish of each group to assess if the number of lice between the various groups differed. […]

[4] = injected in vaccine formulations

O=C(NC(=O)c1c(F)cccc1F)Nc1cc(Cl)c(OC(F)(F)C(F)F)c(Cl)c1 [hexaflumuron]
SGR [1]: 0.84 - 0.98%
average number of lice (sea lice [2]; T8, first-named treated group (formulation)): 4.8
average number of lice (sea lice [2]; T8, second-named treated group (formulation)): 1.8
number of sea lice versus control group (sea lice [2]; T9 and T10, treated groups): significant differences
number of lice versus control group (sea lice [2]; T11, after ALPHA MAX bath of all groups): significantly less lice
excellent protection against sea lice infestation after sea water transfer (sea lice [2]; injection about 50 mg/kg): 7 months
partially protective effect after sea water transfer (sea lice [2]; injection about 50 mg/kg): ≤ 10.5 months
time after sea water transfer until sea lice were first recorded (T8) (sea lice [2]; injection about 50 mg/kg, two treated groups, control had lice from T5 (126 days)): 215 days
number of sea lice versus control (sea lice [3]; 9 and 12 weeks after sea water transfer (T3 and T4), 3 formulations, 25 mg per ml vaccine): significantly lower
protection against recurrent infestation after injection (sea lice [3]; [4]): ≥ 18 weeks
protection against recurrent infestation after sea water transfer (sea lice [3]; [4]): at least 12 weeks
